In patent publication US11970474B2, “Substituted benzodiazoles and use thereof in therapy” (THOMAS HELLEDAYS STIFTELSE FÖR MEDICINSK FORSKNING, priority 2018, dated 2024):

target: OGG1 (Homo sapiens (Human), UniProt O15527); experiment: In vitro OGG1 activity assay; assay type: biochemical; conditions: 800 pM OGG1 enzyme, 2 nM human APEX1, 10 nM 8-oxoA:C substrate
Procedure: Method 1: In Vitro OGG1 Activity Assay OGG1 activity is assayed by measuring the increase in fluorescence from a duplex oligonucleotide containing an OGG1 substrate and a fluorophore in close proximity that are quenched by a quencher on the complementary strand. […] OGG1 activity releases the substrate base from DNA by cleaving the N-glycosidic bond between base and deoxyribose. The resulting apurinic site is cleaved by an excessive amount APEX1 activity which cause the duplex to melt, which in turn cause the fluorophore to become unquenched. Compounds to be tested are dissolved in DMSO and nano-dispensed directly into black 384-well plates, followed by transfer of enzyme and substrate solutions. […] The fluorescent signal is recorded in a plate reader equipped with suitable filters to register fluorescein fluorescence.

OGG1, sequence (O15527 whole entry): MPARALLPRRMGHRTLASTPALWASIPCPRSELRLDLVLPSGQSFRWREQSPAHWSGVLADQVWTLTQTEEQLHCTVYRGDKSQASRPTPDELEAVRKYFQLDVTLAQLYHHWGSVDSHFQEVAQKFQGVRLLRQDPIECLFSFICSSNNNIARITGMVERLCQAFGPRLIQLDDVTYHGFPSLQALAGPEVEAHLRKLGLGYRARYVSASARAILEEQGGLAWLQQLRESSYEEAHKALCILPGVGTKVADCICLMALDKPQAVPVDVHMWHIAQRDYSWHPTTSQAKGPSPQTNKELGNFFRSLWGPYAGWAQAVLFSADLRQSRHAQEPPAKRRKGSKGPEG

IC50 [nM] | Compound
556 | COc1ncc(NC(=O)[C@H]2CC[C@@H](n3c(=O)[nH]c4c(F)cccc43)CC2)cc1C [Example 214, Cis-4-(4-fluoro-2-oxo-2,3-dihydro-1H-1,3-benzodiazol-1-yl)-N-(6-methoxy-5-methylpyridin-3-yl)cyclohexane-1-carboxamide]
73.6 | COc1ccc(NC(=O)[C@H]2CC[C@@H](n3c(=O)[nH]c4c(OC)cccc43)CC2)cc1F [Example 207, Cis-N-(3-fluoro-4-methoxyphenyl)-4-(4-methoxy-2-oxo-2,3-dihydro-1H-1,3-benzodiazol-1-yl)cyclohexane-1-carboxamide]
74.5 | COc1ccc(NC(=O)[C@H]2CC[C@@H](n3c(=O)[nH]c4c(OC)cccc43)CC2)cc1 [Example 205, Cis-4-(4-methoxy-2-oxo-2,3-dihydro-1H-1,3-benzodiazol-1-yl)-N-(4-methoxyphenyl)cyclohexane-1-carboxamide]
38 | COC(=O)NC1CCN(c2cccc3c2[nH]c(=O)n3[C@H]2CC[C@@H](C(=O)Nc3ccc(C)c(OC)c3)CC2)C1 (stereo partly drawn) [Example 316, Methyl N-(1-{2-oxo-1-[cis-4-[(3-methoxy-4-methylphenyl)carbamoyl]cyclohexyl]-2,3-dihydro-1H-1,3-benzodiazol-4-yl}pyrrolidin-3-yl)carbamate]
1.21 | COc1cc(NC(=O)[C@H]2CC[C@@H](n3c(=O)[nH]c4c(C(=O)NC5CCNC5)cccc43)CC2)ccc1C (stereo partly drawn) [Example 294, 2-Oxo-N-(pyrrolidin-3-yl)-1-[cis-4-[(3-methoxy-4-methylphenyl)carbamoyl]cyclohexyl]-2,3-dihydro-1H-1,3-benzodiazole-4-carboxamide]
1.42 | COc1cc(NC(=O)[C@H]2CC[C@@H](n3c(=O)[nH]c4c(C(=O)NC5CNC5)cccc43)CC2)ccc1C [Example 293, N-(Azetidin-3-yl)-2-oxo-1-[cis-4-[(3-methoxy-4-methylphenyl)carbamoyl]cyclohexyl]-2,3-dihydro-1H-1,3-benzodiazole-4-carboxamide]
155 | COc1ccc(NC(=O)[C@H]2CC[C@@H](n3c(=O)[nH]c4c(F)cccc43)CC2)cc1F [Example 213, Cis-4-(4-fluoro-2-oxo-2,3-dihydro-1H-1,3-benzodiazol-1-yl)-N-(3-fluoro-4-methoxyphenyl)cyclohexane-1-carboxamide]
126 | COc1cc(NC(=O)[C@H]2CC[C@@H](n3c(=O)[nH]c4c(OCC(=O)O)cccc43)CC2)ccc1C [Example 242, 2-({2-Oxo-1-[cis-4-[(3-methoxy-4-methylphenyl)carbamoyl]cyclohexyl]-2,3-dihydro-1H-1,3-benzodiazol-4-yl}oxy)acetic acid]
343 | COc1cc(NC(=O)[C@H]2CC[C@@H](n3c(=O)[nH]c4c(C(=O)N(C)C)cccc43)CC2)ccc1C [Example 260, N,N-Dimethyl-2-oxo-1-[cis-4-[(3-methoxy-4-methylphenyl)carbamoyl]cyclohexyl]-2,3-dihydro-1H-1,3-benzodiazole-4-carboxamide]
759 | CC(=O)Nc1cccc2c1[nH]c(=O)n2[C@H]1CC[C@@H](C(=O)Nc2ccc3[nH]ncc3c2)CC1 [Example 315, Cis-4-(4-acetamido-2-oxo-2,3-dihydro-1H-1,3-benzodiazol-1-yl)-N-(1H-indazol-5-yl)cyclohexane-1-carboxamide]

The next lines start with the compound.

Compound | IC50 [nM]
Cc1cc(NC(=O)N2CCC(n3c(=O)[nH]c4c(-c5ccc(CO)nc5)cccc43)CC2)ccc1I [Example 81, 4-{4-[6-(Hydroxymethyl)pyridin-3-yl]-2-oxo-2,3-dihydro-1H-1,3-benzodiazol-1-yl}-N-(4-iodo-3-methylphenyl)piperidine-1-carboxamide] | 408
N#Cc1ccc(NC(=O)[C@H]2CC[C@@H](n3c(=O)[nH]c4c(Br)cccc43)CC2)cc1 [Example 132, (Cis)-4-(4-bromo-2-oxo-2,3-dihydro-1H-1,3-benzodiazol-1-yl)-N-(4-cyanophenyl)cyclohexane-1-carboxamide] | 6830
O=C(Nc1ccc(I)cc1)N1CCC(n2c(=O)[nH]c3c(O)cccc32)CC1 [Example 6, 4-(4-Hydroxy-2-oxo-2,3-dihydro-1H-1,3-benzodiazol-1-yl)-N-(4-iodophenyl)piperidine-1-carboxamide] | 540
COc1ccc(NC(=O)N2CCC(n3c(=O)[nH]c4c(C)ccnc43)CC2)cc1Cl [Example 180, N-(3-Chloro-4-methoxyphenyl)-4-{7-methyl-2-oxo-1H,2H,3H-imidazo[4,5-b]pyridin-3-yl}piperidine-1-carboxamide] | 8890
Cc1ccc(NC(=O)[C@H]2CC[C@@H](n3c(=O)[nH]c4c(Br)cccc43)CC2)cc1C(F)(F)F [Example 144, (Cis)-4-(4-bromo-2-oxo-2,3-dihydro-1H-1,3-benzodiazol-1-yl)-N-[4-methyl-3-(trifluoromethyl)phenyl]cyclohexane-1-carboxamide] | 983
O=C(Nc1ccc(I)cc1)N1CCCC(n2c(=O)[nH]c3c(Br)cccc32)CC1 (stereo not shown) [Example 34, 4-(4-Bromo-2-oxo-2,3-dihydro-1H-1,3-benzodiazol-1-yl)-N-(4-iodophenyl)azepane-1-carboxamide] | 502
O=C(Nc1ccc(I)cc1)N1CCC(n2c(=O)[nH]c3c(CCO)cccc32)CC1 [Example 30, 4-[4-(2-Hydroxyethyl)-2-oxo-2,3-dihydro-1H-1,3-benzodiazol-1-yl]-N-(4-iodophenyl)piperidine-1-carboxamide] | 1710
O=C(Nc1ccc(Cl)c(Cl)c1)N1CCC(n2c(=O)[nH]c3c(-c4ccc(C(=O)C(F)(F)F)cc4)cccc32)CC1 [Example 40, N-(3,4-dichlorophenyl)-4-{2-oxo-4-[4-(2,2,2-trifluoroacetyl)phenyl]-2,3-dihydro-1H-1,3-benzodiazol-1-yl}piperidine-1-carboxamide] | 6320
O=c1[nH]c2c(Br)cccc2n1[C@H]1CC[C@@H](C(=O)Nc2ccc(C(F)(F)F)c(F)c2)CC1 [Example 137, (Cis)-4-(4-bromo-2-oxo-2,3-dihydro-1H-1,3-benzodiazol-1-yl)-N-[3-fluoro-4-(trifluoromethyl)phenyl]cyclohexane-1-carboxamide] | 2030
O=c1[nH]c2c(Br)cccc2n1[C@H]1CC[C@@H](C(=O)Nc2ccc(OC(F)(F)F)c(Cl)c2)CC1 [Example 134, (Cis)-4-(4-bromo-2-oxo-2,3-dihydro-1H-1,3-benzodiazol-1-yl)-N-[3-chloro-4-(trifluoromethoxy)phenyl]cyclohexane-1-carboxamide] | 2740
Cc1ccc(NC(=O)[C@H]2CC[C@@H](n3c(=O)[nH]c4c(Br)cccc43)CC2)cn1 [Example 190, Cis-4-(4-bromo-2-oxo-2,3-dihydro-1H-1,3-benzodiazol-1-yl)-N-(6-methylpyridin-3-yl)cyclohexane-1-carboxamide] | 467
Nc1cccc(NC(=O)[C@H]2CC[C@@H](n3c(=O)[nH]c4c(Br)cccc43)CC2)c1 [Example 195, Cis-N-(3-aminophenyl)-4-(4-bromo-2-oxo-2,3-dihydro-1H-1,3-benzodiazol-1-yl)cyclohexane-1-carboxamide] | 3560
O=c1[nH]c2c(Br)cccc2n1[C@H]1CC[C@@H](C(=O)Nc2cccc3[nH]ccc23)CC1 [Example 145, (Cis)-4-(4-bromo-2-oxo-2,3-dihydro-1H-1,3-benzodiazol-1-yl)-N-(1H-indol-4-yl)cyclohexane-1-carboxamide] | 1080
NCc1ccc(-c2cccc3c2[nH]c(=O)n3C2CCN(C(=O)Nc3ccc(Cl)c(Cl)c3)CC2)cc1 [Example 33, 4-{4-[4-(Aminomethyl)phenyl]-2-oxo-2,3-dihydro-1H-1,3-benzodiazol-1-yl}-N-(3,4-dichlorophenyl)piperidine-1-carboxamide] | 2530
COc1ccc2c(c1)[nH]c(=O)n2C1CCN(C(=O)Nc2ccc(OC)c(Cl)c2)CC1 [Example 172, N-(3-Chloro-4-methoxyphenyl)-4-(5-methoxy-2-oxo-2,3-dihydro-1H-1,3-benzodiazol-1-yl)piperidine-1-carboxamide] | 7790
Cn1cc(NC(=O)[C@H]2CC[C@@H](n3c(=O)[nH]c4c(Br)cccc43)CC2)cn1 [Example 170, (Cis)-4-(4-bromo-2-oxo-2,3-dihydro-1H-1,3-benzodiazol-1-yl)-N-(1-methyl-1H-pyrazol-4-yl)cyclohexane-1-carboxamide] | 8800
COc1ccc(NC(=O)N2CCC(n3c(=O)[nH]c4c(N5Cc6cn[nH]c6C5)cccc43)CC2)cc1Cl [Example 108, N-(3-chloro-4-methoxyphenyl)-4-(2-oxo-4-{1H,4H,5H,6H-pyrrolo[3,4-c]pyrazol-5-yl}-2,3-dihydro-1H-1,3-benzodiazol-1-yl)piperidine-1-carboxamide] | 2530
COc1ccc(NC(=O)N2CCC(n3c(=O)[nH]c4c(N(C)CCN(C)C)cccc43)CC2)cc1Cl [Example 106, N-(3-chloro-4-methoxyphenyl)-4-(4-{[2-(dimethylamino)ethyl](methyl)amino}-2-oxo-2,3-dihydro-1H-1,3-benzodiazol-1-yl)piperidine-1-carboxamide] | 1750
COc1cccc(NC(=O)[C@H]2CC[C@@H](n3c(=O)[nH]c4c(Br)cccc43)CC2)c1 [Example 165, (Cis)-4-(4-bromo-2-oxo-2,3-dihydro-1H-1,3-benzodiazol-1-yl)-N-(3-methoxyphenyl)cyclohexane-1-carboxamide] | 1390
COc1ccc(NC(=O)N2CCC(n3c(=O)[nH]c4cc(C)cnc43)CC2)cc1Cl [Example 181, N-(3-Chloro-4-methoxyphenyl)-4-{6-methyl-2-oxo-1H,2H,3H-imidazo[4,5-b]pyridin-3-yl}piperidine-1-carboxamide] | 7090
O=C(Nc1ccc(I)cc1)N1CCC(n2c(=O)[nH]c3c(C4CC4)cccc32)CC1 [Example 31, 4-(4-Cyclopropyl-2-oxo-2,3-dihydro-1H-1,3-benzodiazol-1-yl)-N-(4-iodophenyl)piperidine-1-carboxamide] | 1090
